Measured values taken from ChEMBL document CHEMBL4834434, “Discovery of Novel and Potent N-Methyl-d-aspartate Receptor Positive Allosteric Modulators with Antidepressant-like Activity in Rodent Models” (J Med Chem, 2021).
The source made the active and inactive calls. The calls are words filed in the database; no cut-off is given here.

Experiments:
[1] = Cytotoxicity against human HEK293 cells assessed as cell growth inhibition at 60 uM measured after 48 hrs by CCK8 assay relative to control; type: cell-based
[2] = Volume of distribution at steady state in Sprague-Dawley rat at 3 mg/kg, iv measured up to 1280 mins by HPLC-MS/MS analysis; type: ADME, organism-based; conditions: in vivo
[3] = Oral bioavailability in Sprague-Dawley rat at 10 mg/kg measured up to 1280 mins by HPLC-MS/MS analysis; type: ADME, organism-based; conditions: in vivo
[4] = Drug concentration in ICR mouse plasma at 3 mg/kg, iv measured at 2 hrs; type: ADME, organism-based
[5] = target: Glutamate NMDA receptor (Mus musculus) (UniProt P35436+Q91ZU9+Q03391+P35438+Q01097+Q01098+A2AIR5); experiment: Positive allosteric modulation of C57BL/6 mouse NMDA receptor assessed as fold change in compound potentiated NMDA-induced current relative to NMDA current alone in presence of saturating glutamate by patch-clamp method; type: tissue-based; conditions: Brain, filed as positive allosteric modulator
[6] = Ratio of drug concentration in brain to plasma in ICR mouse at 3 mg/kg, iv measured at 0.5 hrs by LC-MS/MS analysis; type: ADME, organism-based; conditions: read-out: BPR
[7] = Drug concentration in ICR mouse brain at 10 mg/kg, po measured at 0.5 hrs by LC-MS/MS analysis; type: ADME, organism-based; conditions: read-out: Ct
Mus musculus [8] = experiment: Antidepressant activity in ICR mouse assessed as decrease in immobility time at 30 mg/kg, ip measured after 26 mins by forced swim test; type: functional, organism-based
hERG (KCNH2) [9] = target: T1, hERG (KCNH2) (Homo sapiens, UniProt Q12809); experiment: Inhibition of human ERG expressed in CHO cells at 100 uM with holding potential at -80 to -60 mV for 500s followed by raise in potential at +30 mV for 2 sec and subsequent repolarization to -60 mV for 2 sec by whole-cell patch clamp method relative to control; type: cell-based; conditions: CHO cells expressing human ERG
T1 sequence (Q12809 whole entry): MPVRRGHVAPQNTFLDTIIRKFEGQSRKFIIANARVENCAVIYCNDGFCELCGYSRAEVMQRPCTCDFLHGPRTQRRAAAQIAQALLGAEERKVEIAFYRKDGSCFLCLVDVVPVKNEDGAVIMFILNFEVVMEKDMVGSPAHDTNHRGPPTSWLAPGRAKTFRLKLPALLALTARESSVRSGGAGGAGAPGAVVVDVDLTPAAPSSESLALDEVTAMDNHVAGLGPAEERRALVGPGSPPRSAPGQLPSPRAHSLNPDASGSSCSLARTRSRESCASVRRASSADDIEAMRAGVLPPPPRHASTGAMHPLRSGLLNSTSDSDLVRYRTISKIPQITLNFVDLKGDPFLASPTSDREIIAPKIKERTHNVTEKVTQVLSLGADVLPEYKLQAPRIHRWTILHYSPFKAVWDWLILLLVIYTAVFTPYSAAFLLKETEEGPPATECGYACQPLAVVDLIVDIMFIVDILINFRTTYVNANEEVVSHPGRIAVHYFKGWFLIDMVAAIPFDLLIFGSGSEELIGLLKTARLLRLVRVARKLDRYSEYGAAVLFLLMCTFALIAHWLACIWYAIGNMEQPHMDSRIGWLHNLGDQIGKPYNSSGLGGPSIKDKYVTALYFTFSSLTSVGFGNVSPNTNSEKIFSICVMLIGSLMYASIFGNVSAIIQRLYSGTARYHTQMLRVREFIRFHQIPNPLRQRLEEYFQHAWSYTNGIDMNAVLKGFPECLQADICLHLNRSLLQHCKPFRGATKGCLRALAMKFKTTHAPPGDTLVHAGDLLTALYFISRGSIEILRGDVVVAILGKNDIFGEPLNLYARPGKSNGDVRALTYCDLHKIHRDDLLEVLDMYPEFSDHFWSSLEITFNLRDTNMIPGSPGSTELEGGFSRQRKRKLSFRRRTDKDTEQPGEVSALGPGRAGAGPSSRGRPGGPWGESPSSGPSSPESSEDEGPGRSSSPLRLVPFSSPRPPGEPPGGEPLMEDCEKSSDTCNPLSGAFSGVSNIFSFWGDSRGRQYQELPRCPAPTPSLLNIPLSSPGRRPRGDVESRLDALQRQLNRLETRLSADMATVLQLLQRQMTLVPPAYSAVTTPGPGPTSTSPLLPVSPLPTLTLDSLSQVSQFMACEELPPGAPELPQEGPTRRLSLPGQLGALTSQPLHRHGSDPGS

[10] = Clearance in ICR mouse at 3 mg/kg, iv measured up to 24 hrs by HPLC-MS/MS analysis; type: ADME, organism-based; conditions: in vivo
[11] = Cytotoxicity against mouse L929 cells assessed as cell growth inhibition at 120 uM measured after 48 hrs by CCK8 assay relative to control; type: cell-based
[12] = Effect on locomotor activity in ICR mouse assessed as hypolocomotion at 10 mg/kg, ip measured after 90 mins; type: ADME, organism-based; conditions: in vivo, 1.5 h
[13] = Volume of distribution at steady state in ICR mouse at 3 mg/kg, iv measured up to 24 hrs by HPLC-MS/MS analysis; type: ADME, organism-based; conditions: in vivo, read-out: Vdss
[14] = target: 5-hydroxytryptamine receptor 2A (Homo sapiens) (UniProt P28223); experiment: Displacement of [3H]-ketanserin from human 5HT2AR expressed in CHO cells incubated for 30 mins by liquid scintillation counting analysis; type: cell-based
5-hydroxytryptamine receptor 2A (Homo sapiens), sequence (P28223 whole entry): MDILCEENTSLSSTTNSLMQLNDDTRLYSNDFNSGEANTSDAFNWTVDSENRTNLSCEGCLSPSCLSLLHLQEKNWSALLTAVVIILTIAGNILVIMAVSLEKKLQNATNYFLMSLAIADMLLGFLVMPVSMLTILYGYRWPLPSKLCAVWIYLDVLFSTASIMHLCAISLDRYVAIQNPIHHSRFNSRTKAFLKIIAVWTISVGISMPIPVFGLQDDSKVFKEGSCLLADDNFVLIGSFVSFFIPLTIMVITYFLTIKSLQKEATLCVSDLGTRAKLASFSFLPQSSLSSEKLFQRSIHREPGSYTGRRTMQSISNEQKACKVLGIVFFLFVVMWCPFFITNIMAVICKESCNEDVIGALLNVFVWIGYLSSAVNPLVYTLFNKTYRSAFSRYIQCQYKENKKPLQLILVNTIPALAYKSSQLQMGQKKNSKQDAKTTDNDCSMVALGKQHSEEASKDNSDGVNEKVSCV

[15] = Effect on locomotor activity in ICR mouse assessed as hyperlocomotion at 10 mg/kg, ip measured after 90 mins; type: ADME, organism-based; conditions: in vivo, 1.5 h
[16] = Drug concentration in ICR mouse brain at 3 mg/kg, iv measured at 0.5 hrs by LC-MS/MS analysis; type: ADME, organism-based; conditions: read-out: Ct
[17] = Oral bioavailability in ICR mouse at 10 mg/kg measured up to 24 hrs by HPLC-MS/MS analysis; type: ADME, organism-based; conditions: in vivo
[18] = target: 5-hydroxytryptamine receptor 1A (Homo sapiens) (UniProt P08908); experiment: Displacement of [3H]-8-OH-DPAT from human 5HT1AR expressed in CHO cells incubated for 30 mins by liquid scintillation counting analysis; type: cell-based
5-hydroxytryptamine receptor 1A (Homo sapiens), sequence (P08908 whole entry): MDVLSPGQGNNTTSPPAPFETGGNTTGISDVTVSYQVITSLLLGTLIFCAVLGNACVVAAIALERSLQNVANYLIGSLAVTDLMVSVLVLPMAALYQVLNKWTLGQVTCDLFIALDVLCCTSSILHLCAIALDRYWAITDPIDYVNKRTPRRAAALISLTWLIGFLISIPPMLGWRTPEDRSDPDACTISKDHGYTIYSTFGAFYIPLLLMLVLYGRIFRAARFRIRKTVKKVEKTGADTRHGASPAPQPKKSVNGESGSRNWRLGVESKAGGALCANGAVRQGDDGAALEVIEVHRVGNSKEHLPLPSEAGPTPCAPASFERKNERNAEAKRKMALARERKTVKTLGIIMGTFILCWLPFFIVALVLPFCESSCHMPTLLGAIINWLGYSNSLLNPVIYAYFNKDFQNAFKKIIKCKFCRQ

[19] = AUC (0 to t) in ICR mouse at 10 mg/kg, po measured up to 24 hrs by HPLC-MS/MS analysis; type: ADME, organism-based; set-up: route oral, dose 10 mg/kg, time <=24; conditions: in vivo
[20] = Ratio of drug concentration in brain to plasma in ICR mouse at 10 mg/kg, po measured at 0.5 hrs by LC-MS/MS analysis; type: ADME, organism-based; conditions: read-out: BPR
[21] = Drug concentration in Sprague-Dawley rat brain at 3 mg/kg, iv measured at 80 mins by LC-MS/MS analysis; type: ADME, organism-based; conditions: read-out: Ct
[22] = Cmax in ICR mouse at 10 mg/kg, po measured up to 24 hrs by HPLC-MS/MS analysis; type: ADME, organism-based; set-up: route oral, dose 10 mg/kg, time <=24; conditions: in vivo
[23] = Half life in Sprague-Dawley rat at 10 mg/kg, po measured up to 1280 mins by HPLC-MS/MS analysis; type: ADME, organism-based; conditions: in vivo
hERG (KCNH2) [24] = target: T1, hERG (KCNH2); experiment: Inhibition of human ERG expressed in CHO cells at 30 uM with holding potential at -80 to -60 mV for 500s followed by raise in potential at +30 mV for 2 sec and subsequent repolarization to -60 mV for 2 sec by whole-cell patch clamp method relative to control; type: cell-based; conditions: CHO cells expressing human ERG
[25] = Cytotoxicity against human HEK293 cells assessed as cell growth inhibition at 120 uM measured after 48 hrs by CCK8 assay relative to control; type: cell-based
[26] = target: 5-hydroxytryptamine receptor 2C (Rattus norvegicus) (UniProt P08909); experiment: Displacement of [3H]-mesulergine from rat cerebral cortex 5HT2CR incubated for 15 mins by liquid scintillation counting analysis; type: tissue-based
5-hydroxytryptamine receptor 2C (Rattus norvegicus), sequence (P08909 whole entry): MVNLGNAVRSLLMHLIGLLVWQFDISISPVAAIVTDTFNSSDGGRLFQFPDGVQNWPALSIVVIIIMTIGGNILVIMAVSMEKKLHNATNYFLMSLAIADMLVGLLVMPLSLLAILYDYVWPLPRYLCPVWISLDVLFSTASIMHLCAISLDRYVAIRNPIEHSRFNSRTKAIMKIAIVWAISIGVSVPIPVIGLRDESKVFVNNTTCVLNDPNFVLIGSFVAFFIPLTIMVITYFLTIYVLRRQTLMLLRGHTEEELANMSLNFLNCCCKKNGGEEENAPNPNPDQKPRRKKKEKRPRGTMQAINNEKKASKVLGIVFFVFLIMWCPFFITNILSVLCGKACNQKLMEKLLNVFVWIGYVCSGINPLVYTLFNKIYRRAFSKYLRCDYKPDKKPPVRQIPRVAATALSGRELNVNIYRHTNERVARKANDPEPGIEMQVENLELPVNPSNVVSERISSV

Mus musculus [27] = experiment: Antidepressant activity in ICR mouse aassessed as inhibition of apomorphine-induced climbing behaviour at 10 mg/kg, ip administered prior to APO challenge and measured after 30 mins; type: functional, organism-based
[28] = Cytotoxicity against mouse L929 cells assessed as cell growth inhibition at 60 uM measured after 48 hrs by CCK8 assay relative to control; type: cell-based
[29] = Ratio of drug concentration in brain to plasma in Sprague-Dawley rat at 3 mg/kg, iv measured at 80 mins by LC-MS/MS analysis; type: ADME, organism-based; conditions: read-out: BPR
[30] = Drug concentration in Sprague-Dawley rat plasma at 3 mg/kg, iv measured at 80 mins by LC-MS/MS analysis; type: ADME, organism-based

Cc1cc(C)n(Cc2ccc(C(=O)Nc3ccc(Cl)c(Cl)c3)s2)n1
inhibition at 48 h, 60 µM [1]: -5.2%
Vdss [2]: 1.27 L/kg
bioavailability [3]: 8.32%
concentration at 2 h [4]: 2940 ng/mL
fold change (FC) [5]: 14.3
Kp at 0.5 h [6]: 0.41
concentration at 0.5 h [7]: 281 ng/mL
Activity (Mus musculus [8]): Active
inhibition at 2 s, 100 µM (hERG (KCNH2) [9]): 45%
clearance [10]: 33.3 mL/min/kg
inhibition at 48 h, 120 µM [11]: -4.6%
Activity [12]: Non-Toxic
Vd [13]: 8.3 L/kg
inhibition [14]: inactive
Activity [15]: Non-Toxic
concentration at 0.5 h [16]: 160 ng/mL
bioavailability [17]: 63.3%
inhibition [18]: inactive
AUC(0-t) at 24 h [19]: 3050 ng·h/mL
Kp at 0.5 h [20]: 0.37
concentration at 1.333 h [21]: 354 ng/g
Cmax [22]: 760 ng/mL
half-life [23]: 1.13 h
inhibition at 2 s, 30 µM (hERG (KCNH2) [24]): 35.4%
inhibition at 48 h, 120 µM [25]: -14%
inhibition [26]: inactive
Activity (Mus musculus [27]): inactive
inhibition at 48 h, 60 µM [28]: 0.5%
Kp at 1.333 h [29]: 1.5
concentration at 1.333 h [30]: 239 ng/mL
